≈ marks a conversion by molar mass, not a printed value. Positions of bridges follow the written chain, without caps; N, C: chain ends. Non-standard residues stand in square brackets, D forms with d. Residues, ends and D or L forms follow the SMILES beside them. ξ: configuration not given here. *: point of attachment. Octanoyl(7-Me) = CC(C)CCCCCC(=O)*; Palmitoyl = CCCCCCCCCCCCCCCC(=O)*; Hexanoyl(4ξ-Me) = CCC(C)CCC(=O)*; X2 = CC(=O)[C@H](CC(N)=O)C(=O)*; dOrn = NCCC[C@@H](N)C(=O)O; Octanoyl = CCCCCCCC(=O)*; Orn = NCCC[C@H](N)C(=O)O; Dap = NC[C@H](N)C(=O)O; Alloc = C=CCOC(=O)*; OAll = C=CCO*
Tests used:
E. coli = format: cell-based
Method: Minimum inhibitory concentration (MIC) was determined by broth microdilution according to CLSI guidelines. Blood agar plates were inoculated with glycerol stocks of Escherichia coli ATCC 25922, E. coli ATCC 25922 MCR-1, E. coli MCR-1 (clinical isolate from Utrecht Medical Center, NL), E. coli EQAS MCR-2 (clinical isolate from Wageningen University and Research, NL), Kiebsielia pneumoniae ATCC 11228, K. pneumoniae ATCC 13883, K. pneumonia 2048 (clinical isolate from Vrije Universiteit Amsterdam Medical Center, NL), K. pneumonia JS-123 (clinical isolate from Utrecht Medical Center, NL), Acinetobacter baumannii ATCC 17961, A. baumannil ATCC 17978, A. baumannii 2018-006 (clinical isolate from Rijksinstituut voor Volksgezondheid en Milieu, NL), A. baumannii MDR (clinical isolate from Vrije Universiteit Amsterdam Medical Center, NL), Pseudomonas aeruginosa ATCC 27853, P. aeruginosa PAO1, P. aeruginosa NRZ-03961 (Reference strain from Das Nationale Referenzzentrum für gramnegative Krankenhauserreger, DE), P. aeruginosa M-120 (clinical isolate from Leiden University Medical Center, NL) and Staphylococcus aureus USA300 (clinical isolate from Texas Children's Hospitalm, USA). E. coli 25922 MCR1 was grown on LB agar supplemented with kanamycin. The inoculated agar plates were then incubated for 16 hours at 37° C. Individually grown colonies were subsequently used to inoculate 3 mL aliquots of TSB that were then incubated at 37° C. with shaking at 220 rpm. In parallel, the compounds to be assessed were serially diluted with Mueller-Hinton broth (MHB) in polypropylene 96-well plates (50 μL in each well). Once the OD600 of the bacterial suspensions reached 0.5, the bacteria were diluted with MHB (final concentration 2×10^5 CFU mL^−1) and added to the microplates containing the test compounds (50 μL to each well, final volume: 100 μL). The well-plates were sealed with an adhesive membrane and after 16 hours of incubation at 37° C. with shaking at 220 rpm the wells were visually inspected for bacterial growth. MIC values were defined as the lowest concentration of the compound that prevented visible growth of bacteria.
MIC values were determined for the lipid analogues of brevicidine.
MIC values were determined for the position 9 analogues of linear brevicidine.

[1] = tested on: Escherichia coli ATCC 25922; format: cell-based; details: ATCC 25922
Summary of the method: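 Broth microdilution in MHB per CLSI; inoculum 2×10^5 CFU mL^−1 from log-phase TSB cultures at OD600 0.5. Plates incubated 16 hours at 37° C with shaking at 220 rpm. MIC is the lowest concentration preventing visible growth.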

SMILES	E. coli MIC (E. coli) [µg/mL]	Minimum inhibitory concentration (MIC) [1] [µg/mL]
CC[C@H](C)[C@@H]1NC(=O)[C@@H](NC(=O)[C@H](Cc2c[nH]c3ccccc23)NC(=O)[C@@H](CCCN)NC(=O)CNC(=O)[C@H](CCCN)NC(=O)[C@@H](CCCN)NC(=O)[C@@H](Cc2c[nH]c3ccccc23)NC(=O)[C@@H](Cc2ccc(O)cc2)NC(=O)[C@@H](CC(N)=O)C(C)=O)[C@@H](C)OC(=O)[C@H](CO)NC(=O)CNC1=O [Brev-C2] (X2-[dY][dW][dOrn][Orn]G[dOrn]WTIGS; ester 8-C)	50	
CCCCCCCC(=O)N[C@H](CC(N)=O)C(=O)N[C@H](Cc1ccc(O)cc1)C(=O)N[C@H](Cc1c[nH]c2ccccc12)C(=O)N[C@H](CCCN)C(=O)N[C@@H](CCCN)C(=O)NCC(=O)N[C@H](CCCN)C(=O)N[C@@H](Cc1c[nH]c2ccccc12)C(=O)N[C@@H]1C(=O)N[C@@H]([C@@H](C)CC)C(=O)NCC(=O)N[C@@H](CO)C(=O)O[C@@H]1C [Brev-C8] (Octanoyl-[dN][dY][dW][dOrn][Orn]G[dOrn]WTIGS; ester 9-C)	25	
CCC(C)CCC(=O)N[C@H](CC(N)=O)C(=O)N[C@H](Cc1ccc(O)cc1)C(=O)N[C@H](Cc1c[nH]c2ccccc12)C(=O)N[C@H](CCCN)C(=O)N[C@@H](CCCN)C(=O)NCC(=O)N[C@H](CCCN)C(=O)N[C@@H](Cc1c[nH]c2ccccc12)C(=O)N[C@@H](CCC(N)=O)C(=O)N[C@H](C(=O)NCC(N)=O)[C@@H](C)CC (stereo partly drawn) [Und(9-Gln)-NH2] ({Hexanoyl(4ξ-Me)}-[dN][dY][dW][dOrn][Orn]G[dOrn]WQIG-NH2)	0.78	
CCC(C)CCC(=O)N[C@H](CC(N)=O)C(=O)N[C@H](Cc1ccc(O)cc1)C(=O)N[C@H](Cc1c[nH]c2ccccc12)C(=O)N[C@H](CCCN)C(=O)N[C@@H](CCCN)C(=O)NCC(=O)N[C@H](CCCN)C(=O)N[C@@H](Cc1c[nH]c2ccccc12)C(=O)N[C@@H](Cc1c[nH]c2ccccc12)C(=O)N[C@H](C(=O)NCC(N)=O)[C@@H](C)CC (stereo partly drawn) [Und(9-Trp)-NH2] ({Hexanoyl(4ξ-Me)}-[dN][dY][dW][dOrn][Orn]G[dOrn]WWIG-NH2)	0.78	
CCC(C)CCC(=O)N[C@H](CC(N)=O)C(=O)N[C@H](Cc1ccc(O)cc1)C(=O)N[C@H](Cc1c[nH]c2ccccc12)C(=O)N[C@H](CCCN)C(=O)N[C@@H](CCCN)C(=O)NCC(=O)N[C@H](CCCN)C(=O)N[C@@H](Cc1c[nH]c2ccccc12)C(=O)N[C@@H](CC(C)C)C(=O)N[C@H](C(=O)NCC(N)=O)[C@@H](C)CC (stereo partly drawn) [Und(9-Leu)-NH2] ({Hexanoyl(4ξ-Me)}-[dN][dY][dW][dOrn][Orn]G[dOrn]WLIG-NH2)	0.78	
CCCCCCCCCCCCCCCC(=O)N[C@H](CC(N)=O)C(=O)N[C@H](Cc1ccc(O)cc1)C(=O)N[C@H](Cc1c[nH]c2ccccc12)C(=O)N[C@H](CCCN)C(=O)N[C@@H](CCCN)C(=O)NCC(=O)N[C@H](CCCN)C(=O)N[C@@H](Cc1c[nH]c2ccccc12)C(=O)N[C@@H]1C(=O)N[C@@H]([C@@H](C)CC)C(=O)NCC(=O)N[C@@H](CO)C(=O)O[C@@H]1C [Brev-C16] (Palmitoyl-[dN][dY][dW][dOrn][Orn]G[dOrn]WTIGS; ester 9-C)	>100	
CCC(C)CCC(=O)N[C@H](CO)C(=O)N[C@H](Cc1ccc(O)cc1)C(=O)N[C@H](Cc1c[nH]c2ccccc12)C(=O)N[C@H](CCCN)C(=O)N[C@@H](CCCN)C(=O)NCC(=O)N[C@H](CCCN)C(=O)N[C@@H](Cc1c[nH]c2ccccc12)C(=O)N[C@@H]1C(=O)N[C@@H]([C@@H](C)CC)C(=O)NCC(=O)N[C@@H](CO)C(=O)N[C@@H](C)C(=O)O[C@@H]1C (stereo partly drawn) [Compound R5] ({Hexanoyl(4ξ-Me)}-[dS][dY][dW][dOrn][Orn]G[dOrn]WTIGSA; ester 9-C; N-terminus assumed)		2 (≈ 1.28 µM)
C=CCOC(=O)NC[C@H](NC(=O)[C@H](Cc1c[nH]c2ccccc12)NC(=O)[C@@H](CCCN)NC(=O)CNC(=O)[C@H](CCCN)NC(=O)[C@@H](CCCN)NC(=O)[C@@H](Cc1c[nH]c2ccccc12)NC(=O)[C@@H](Cc1ccc(O)cc1)NC(=O)[C@@H](CO)NC(=O)CCCCCC(C)C)C(=O)N[C@H](C(=O)N[C@@H](CC(N)=O)C(=O)NCC(=O)NCC(=O)O)[C@@H](C)CC [Dap(Alloc)9-COOH] ({Octanoyl(7-Me)}-[dS][dY][dW][dOrn][Orn]G[dOrn]W[Dap](Alloc)INGG-OH)		2 (≈ 1.18 µM)
CC[C@H](C)[C@H](NC(=O)[C@@H](NC(=O)[C@H](Cc1c[nH]c2ccccc12)NC(=O)[C@@H](CCCN)NC(=O)CNC(=O)[C@H](CCCN)NC(=O)[C@@H](CCCN)NC(=O)[C@@H](Cc1c[nH]c2ccccc12)NC(=O)[C@@H](Cc1ccc(O)cc1)NC(=O)[C@@H](CO)NC(=O)CCCCCC(C)C)[C@@H](C)O)C(=O)N[C@@H](C)C(=O)NCC(=O)NCC(N)=O [Ala11 (Asn→Ala), FA-sywoOGoWTIAGG-CONH2] ({Octanoyl(7-Me)}-[dS][dY][dW][dOrn][Orn]G[dOrn]WTIAGG-NH2)		16 (≈ 10.1 µM)
CC[C@H](C)[C@H](NC(=O)[C@@H](NC(=O)[C@H](Cc1c[nH]c2ccccc12)NC(=O)[C@@H](CCCN)NC(=O)CNC(=O)[C@H](CCCN)NC(=O)[C@@H](CCCN)NC(=O)[C@@H](Cc1c[nH]c2ccccc12)NC(=O)[C@@H](Cc1ccc(O)cc1)NC(=O)[C@@H](CO)NC(=O)CCCCCC(C)C)[C@@H](C)O)C(N)=O [ΔN11-G13, FA-sywoOGoWTI-CONH2] ({Octanoyl(7-Me)}-[dS][dY][dW][dOrn][Orn]G[dOrn]WTI-NH2)		4 (≈ 2.87 µM)
CC[C@H](C)[C@H](NC(=O)[C@@H](NC(=O)[C@H](Cc1c[nH]c2ccccc12)NC(=O)[C@@H](CCCN)NC(=O)CNC(=O)[C@H](CCCN)NC(=O)[C@@H](CCCN)NC(=O)[C@@H](Cc1c[nH]c2ccccc12)NC(=O)[C@@H](Cc1ccc(O)cc1)NC(=O)[C@@H](CO)NC(=O)CCCCCC(C)C)[C@@H](C)O)C(=O)N[C@@H](CC(N)=O)C(=O)NCC(=O)NCC(N)=O [Thr9-CONH2] ({Octanoyl(7-Me)}-[dS][dY][dW][dOrn][Orn]G[dOrn]WTINGG-NH2)		2 to 4
CC[C@H](C)[C@@H]1NC(=O)[C@@H](NC(=O)[C@H](Cc2c[nH]c3ccccc23)NC(=O)[C@@H](CCCN)NC(=O)CNC(=O)[C@H](CCCN)NC(=O)[C@@H](CCCN)NC(=O)[C@@H](Cc2c[nH]c3ccccc23)NC(=O)[C@@H](Cc2ccc(O)cc2)NC(=O)[C@@H](CO)NC(=O)CCCCCC(C)C)[C@@H](C)OC(=O)[C@@H](C)NC(=O)[C@H](CO)NC(=O)CNC1=O [Compound R11] ({Octanoyl(7-Me)}-[dS][dY][dW][dOrn][Orn]G[dOrn]WTIGS[dA]; ester 9-C; N-terminus assumed)		1 (≈ 0.628 µM)
CC[C@H](C)[C@H](NC(=O)[C@@H](NC(=O)[C@H](Cc1c[nH]c2ccccc12)NC(=O)[C@@H](CCCN)NC(=O)CNC(=O)[C@H](CCCN)NC(=O)[C@@H](CCCN)NC(=O)[C@@H](Cc1c[nH]c2ccccc12)NC(=O)[C@@H](Cc1ccc(O)cc1)NC(=O)[C@@H](CO)NC(=O)CCCCCC(C)C)[C@@H](C)O)C(=O)N[C@@H](CC(N)=O)C(=O)NCC(=O)N[C@@H](C)C(N)=O [Ala13 (Gly→Ala), FA-sywoOGoWTINGA-CONH2] ({Octanoyl(7-Me)}-[dS][dY][dW][dOrn][Orn]G[dOrn]WTINGA-NH2)		4 (≈ 2.45 µM)
C=CCOC(=O)CC[C@H](NC(=O)[C@H](Cc1c[nH]c2ccccc12)NC(=O)[C@@H](CCCN)NC(=O)CNC(=O)[C@H](CCCN)NC(=O)[C@@H](CCCN)NC(=O)[C@@H](Cc1c[nH]c2ccccc12)NC(=O)[C@@H](Cc1ccc(O)cc1)NC(=O)[C@@H](CO)NC(=O)CCCCCC(C)C)C(=O)N[C@H](C(=O)N[C@@H](CC(N)=O)C(=O)NCC(=O)NCC(N)=O)[C@@H](C)CC [Glu(OAll)9-CONH2] ({Octanoyl(7-Me)}-[dS][dY][dW][dOrn][Orn]G[dOrn]WE(OAll)INGG-NH2)		8 (≈ 4.73 µM)
CC[C@H](C)[C@@H]1NC(=O)[C@@H](NC(=O)[C@H](Cc2c[nH]c3ccccc23)NC(=O)[C@@H](CCCN)NC(=O)CNC(=O)[C@H](CCCN)NC(=O)[C@@H](CCCN)NC(=O)[C@@H](Cc2c[nH]c3ccccc23)NC(=O)[C@@H](Cc2ccc(O)cc2)NC(=O)[C@@H](CO)NC(=O)CCCCCC(C)C)[C@@H](C)OC(=O)[C@@H](C)NC(=O)[C@@H](CO)NC(=O)CNC1=O [Compound R12] ({Octanoyl(7-Me)}-[dS][dY][dW][dOrn][Orn]G[dOrn]WTIG[dS][dA]; ester 9-C; N-terminus assumed)		1 to 2
